The values below come from publication PMC8591201, “Anti-Tumor Activity of AZD4547 Against NTRK1 Fusion Positive Cancer Cells Through Inhibition of NTRKs” (Frontiers in Oncology, 2021).

In test [1] the target is T1, TRKA (Homo sapiens, UniProt P04629).
T1 construct: gene NTRK1
Nature of the test: radiometric biochemical kinase assay.

Another test relates to T2, TRKA G595R.
T2 construct: ETV6 (1-336)-NTRK1 kinase domain (434-790) fusion expressed in Ba/F3
Nature of the test: cells. On the set-up: species or system Ba/F3; CellTiter-Glo anti-proliferation of Ba/F3 cells transformed with ETV6-NTRK fusions. The following applies: Mus musculus, BaF3, 72 h; read-out: AZD4547 GI50. As to the method:
(§1) To obtain the GI50 value of a substance, cell viability was measured using MTT (G4000, Promega, USA) for KM12(Luc) cell and Cell titer glo (G7572, Promega, USA) for other cell lines. For adherent cells, cells were seeded at 5,000 cells/well in a 96-well plate and treated with a substance one day after cell seeding. For suspension cells, 10,000 cells/well were seeded and the substance was treated after 4 h stabilization of cells. The substance was treated at 10 points of 1:3 serial dilution (0–100 µmol/L) for 72 h. For MTT assay, 15 µL dye solution was added to each well and incubated 4 h at 37°C. 100 µL of solubilization solution was added and followed 1 hr incubation. Absorbance at 570 nm of each well was recorded using EnVision microplate reader (Perkin Elmer). For Cell titer glo assay, Cell titer glo reagent was treated in each well and measured the luminescence by EnVision microplate reader (Perkin Elmer). Viable cells in each well were normalized by using 0.5% DMSO-treated wells (100%). The inhibitor dose−response curve was fitted and GI50 values were calculated using Prism 7.0 software (GraphPad). All assays were performed in duplicate and the standard deviation (SD) was determined from two independent experiments. To investigate the inhibitory activity of AZD4547 against clinically relevant TRK mutants which have resistance to the known TRK inhibitors ([8], [44]), we established Ba/F3 cell lines harboring the ETV6-NTRKs fusion genes (NTRK1, NTRK1G595R, NTRK1G667A, NTRK1G667C, NTRK1G667S and NTRK2) ( Supplementary Figure 2 ). The mutation status of each established cell line was confirmed by sequencing of its cDNA ( Supplementary Figure 2 ). The anti-proliferation activity of AZD4547 was then measured in each cell line ( Figure 2A and Table S2 ). […] However, AZD4547 has no inhibitory activity against Ba/F3 harboring clinically relevant TRKs mutants including TRKA G595R, TRKA G667S, TRKA G667C and TRKA G667A. We next evaluated if AZD4547 is capable of suppressing the phosphorylation of TRKA/B in Ba/F3 cell lines ( Figure 2B ). […] Also, phosphorylation of TRKA/B is almost completely abolished using 1 µM of AZD4547. […] (A) Summary of GI50s of AZD4547 against Ba/F3: TRKA mutants or TRKB. Cell viability after 72 h exposure to the indicated inhibitors, determined by using a cell titer glo assay in duplicate mode. Data was plotted as mean GI50 ± SD of two independent experiments. (B) AZD4547 inhibits phosphorylation of TRKA/B and PLC-gamma in Ba/F3 harboring TRKA and TRKB, respectively. […] Data are representative of three independent experiments.

Another test has as its system T3, TRKA G667C.
T3 construct: ETV6 (1-336)-NTRK1 kinase domain (434-790) fusion expressed in Ba/F3
Put plainly: cells. To be noted: Mus musculus, BaF3, 72 h; read-out: AZD4547 GI50. On the set-up: species or system Ba/F3; CellTiter-Glo anti-proliferation of Ba/F3 cells transformed with ETV6-NTRK fusions. As to the method: as §1

In a further test the test system is T4, TRKA G667S.
T4 construct: ETV6 (1-336)-NTRK1 kinase domain (434-790) fusion expressed in Ba/F3
Nature of the test: cells. On the set-up: species or system Ba/F3; CellTiter-Glo anti-proliferation of Ba/F3 cells transformed with ETV6-NTRK fusions. To be noted: Mus musculus, BaF3, 72 h; read-out: AZD4547 GI50. As to the method:
as §1

Test [2] relates to T5, TRKA.
T5 construct: ETV6 (1-336)-NTRK1 kinase domain (434-790) fusion expressed in Ba/F3
Put plainly: cells. The following applies: Mus musculus, BaF3, 72 h; read-out: AZD4547 GI50. On the set-up: species or system Ba/F3; CellTiter-Glo anti-proliferation of Ba/F3 cells transformed with ETV6-NTRK fusions. As to the method: as §1

The next test has as its system T6, TRKB.
T6 construct: ETV6 (1-336)-NTRK2 kinase domain (455-822) fusion expressed in Ba/F3
Nature of the test: cells. On the set-up: species or system Ba/F3; CellTiter-Glo anti-proliferation of Ba/F3 cells transformed with ETV6-NTRK fusions. To be noted: Mus musculus, BaF3, 72 h; read-out: AZD4547 GI50. As to the method:
as §1

Structures are written as SMILES. Some results are limits rather than exact numbers.

T1 sequence (P04629 33-796): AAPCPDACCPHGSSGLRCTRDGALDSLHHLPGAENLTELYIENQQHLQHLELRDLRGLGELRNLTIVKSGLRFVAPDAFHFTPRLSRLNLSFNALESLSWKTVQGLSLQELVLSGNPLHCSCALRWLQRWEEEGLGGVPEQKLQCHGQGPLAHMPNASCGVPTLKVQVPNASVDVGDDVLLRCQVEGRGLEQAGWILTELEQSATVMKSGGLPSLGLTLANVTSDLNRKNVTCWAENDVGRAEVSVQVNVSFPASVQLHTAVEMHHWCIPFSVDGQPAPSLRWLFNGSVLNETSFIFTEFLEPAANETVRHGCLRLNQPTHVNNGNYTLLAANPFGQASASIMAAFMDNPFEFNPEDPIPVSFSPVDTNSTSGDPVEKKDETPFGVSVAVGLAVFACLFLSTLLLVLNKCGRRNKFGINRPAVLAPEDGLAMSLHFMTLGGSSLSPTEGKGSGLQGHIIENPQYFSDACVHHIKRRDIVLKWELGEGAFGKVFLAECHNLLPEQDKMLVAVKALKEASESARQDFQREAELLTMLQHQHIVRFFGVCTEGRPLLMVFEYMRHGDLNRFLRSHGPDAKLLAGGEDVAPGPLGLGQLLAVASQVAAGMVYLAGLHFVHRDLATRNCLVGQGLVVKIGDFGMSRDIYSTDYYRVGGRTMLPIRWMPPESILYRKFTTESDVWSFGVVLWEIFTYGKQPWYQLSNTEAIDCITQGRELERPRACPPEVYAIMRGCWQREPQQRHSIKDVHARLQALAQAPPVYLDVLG

The term IC50 denotes the concentration that gives 50% inhibition. For orientation: GI50 means the concentration at which growth is held to half of that of the control. For the compound `COc1cc(CCc2cc(NC(=O)c3ccc(N4C[C@@H](C)N[C@@H](C)C4)cc3)n[nH]2)cc(OC)c1` [AZD4547], at TRKA [1], the half-inhibitory concentration (IC50) amounted to 8.8 nM. Also, the 50% growth inhibitory concentration (GI50) in the test on TRKA G595R is over 2000 nM; in the test on TRKA G667C it was over 2000 nM; in the test on TRKA G667S, over 2000 nM; with TRKA [2] it was 66 ± 11.5 nM; in the test on TRKB it was 104 ± 6.1 nM.
